Several values for one entry are separate records, joined by “and”; a condition that tells them apart may be missing. Equal entries are not always repeated.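 1) Cells in 96-well plates. 2) Compound, 48 h, 5 concentrations. 3) Linear interpolation between surrounding doses. 4) Unreached endpoint = highest concentration. Abbreviation: GI50, concentration required for 50% inhibition of growth. The concentration for full growth arrest is given as TGI.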 *1 amine or outer side, *2 acyl side, *3 side chain or, on linkers, in order; H or OH if unused. Where a SMILES comes first, the peptide text is derived from it. Bridges are numbered along the chain shown (N, C = ends). [ ]: non-standard residue; d: D form. ξ: configuration not given here. X4 = CCC(C)C(N[*:1])C(O)CC(=O)O[C@H](C(=O)C(C)C(=O)[*:2])C(C)C; NMeY = CN[C@@H](Cc1ccc(O)cc1)C(=O)O; X9 = O=C([C@@H]1CC(O)CN1[*:1])[*:2]; ξNMeL = CNC(CC(C)C)C(=O)O; ξT = CC(O)C(N)C(=O)O
What was measured:
Assay in all cases: growth of human tumour cells (NCI), 48 h
SNB-75 CNS = tested on: SNB-75 CNS
SN12C renal = tested on: SN12C renal
SF-268 CNS = tested on: SF-268 CNS
EKVX NSCLC = tested on: EKVX NSCLC
SK-MEL-2 melanoma = tested on: SK-MEL-2 melanoma
COLO 205 colon = tested on: COLO 205 colon
HCC-2998 colon = tested on: HCC-2998 colon
SK-MEL-28 melanoma = tested on: SK-MEL-28 melanoma
786-0 renal = tested on: 786-0 renal
HS 578T breast = tested on: HS 578T breast

Structure (SMILES) | GI50 (SNB-75 CNS) [µM] | TGI (SNB-75 CNS) | GI50 (SN12C renal) [µM] | TGI (SN12C renal) | GI50 (SF-268 CNS) [µM] | TGI (SF-268 CNS) | GI50 (EKVX NSCLC) [µM] | TGI (EKVX NSCLC) [µM] | GI50 (SK-MEL-2 melanoma) [µM] | TGI (SK-MEL-2 melanoma) | GI50 (COLO 205 colon) [µM] | TGI (COLO 205 colon) [µM] | GI50 (HCC-2998 colon) [µM] | TGI (HCC-2998 colon) | GI50 (SK-MEL-28 melanoma) [µM] | TGI (SK-MEL-28 melanoma) | GI50 (786-0 renal) [µM] | TGI (786-0 renal) | GI50 (HS 578T breast) [µM] | TGI (HS 578T breast)
CN(C)c1cccc2[nH]c(-c3[nH]ncc3Nc3ccnc(N)n3)nc12 | < 0.0108 | 0.0302 µM | 0.0233 | 1.1 µM | 0.0179 | 0.104 µM | 0.0259 | 0.998 | 0.021 | 0.0692 µM | < 0.01 | 0.0837 | 0.0276 | 0.488 µM | 0.0183 | 0.452 µM | 0.0247 | 1.13 µM | < 0.0156 | 0.261 µM
N#Cc1c(NC(=O)c2cccs2)[n+]([O-])c2ccccc2[n+]1[O-] | 49.5 | > 100 µM | > 100 | > 100 µM | > 100 | > 100 µM | 93.8 | > 100 | > 100 | > 100 µM | > 100 | > 100 | > 100 | > 100 µM | > 100 | > 100 µM | > 100 | > 100 µM | 95.9 | > 100 µM
COC(=O)Nc1ccc2ccc3c(NC(=O)OC)ccc4ccc1c2c43 (tested in a mixture with another compound) | 12.6 | > 50 µM | 18.9 | > 50 µM | 14 | > 50 µM | 5.55 | > 50 | 25.6 | > 50 µM | 6.08 | 30.5 | 9.99 | 37.9 µM | 35.2 | > 50 µM | 12.2 | 41.2 µM | 9.01 | 40.4 µM
O=[N+]([O-])c1cccc(-c2nc3sccn3c2-c2ccnc(NCCCNS(=O)(=O)c3ccc(F)cc3)n2)c1 | 1.58 | 6.07 µM | 2.61 | > 100 µM | 2.92 | > 100 µM | 2.9 | > 100 | 2.06 | 5.43 µM | 2.44 | 8.24 | 7.29 | > 100 µM | 2.75 | 7.92 µM | 7.39 | > 100 µM | 3.25 | > 100 µM
CC1CCC2(OC1)OC1CC3C4CC=C5CC(OC6OC(CO)C(OC7OC(C)C(OC8OC(C)C(O)C(O)C8O)C(O)C7O)C(O)C6OC6OC(C)C(O)C(O)C6O)CCC5(C)C4CCC3(C)C1C2C (stereo unspecified) | – | 1.64 µM | – | 1.04 µM | – | 2.03 µM | – | 2.1 | – | 2.5 µM | – | 3.06 | – | 1.37 µM | – | 1.85 µM | – | 2.29 µM | – | 1.77 µM
Nc1nc(-n2cccn2)nc(-n2cccn2)c1Br | 24.6 | > 100 µM | > 100 | > 100 µM | > 100 | > 100 µM | > 100 | > 100 | > 100 | > 100 µM | > 100 | > 100 | > 100 | > 100 µM | > 100 | > 100 µM | > 100 | > 100 µM | > 100 | > 100 µM
CCN(CC)c1ccc(/C=N/NC(=O)c2ccc(Nc3ccnc(C(F)(F)F)c3)cc2)c(O)c1 | 0.152 | 3.41 µM | 0.395 | > 100 µM | 0.155 | > 20.7 µM | 0.167 | 1.76 | 0.718 | – | 0.281 | 1.09 | 0.25 | 1.4 µM | 0.32 | > 27.3 µM | 0.188 | 0.447 µM | 0.321 | 3.6 µM
O=C1C(NCCO)=C(N2CC2)C(=O)C(NCCO)=C1N1CC1 | – | > 100 µM | – | 56.7 µM | – | 76.8 µM | – | > 100 | – | > 73.9 µM | – | > 90.3 | – | > 100 µM | – | > 100 µM | – | > 60.9 µM | – | > 100 µM
Clc1nc(Cl)c2ncn(C/C=C\Cn3cnc4c(Cl)nc(Cl)nc43)c2n1 | 2.73 | 7.91 µM | 3.01 | 9.71 µM | 2.24 | 5.71 µM | 1.97 | 3.76 | 1.75 | 3.66 µM | 2.09 | 4.82 | 1.67 | 3.45 µM | 1.94 | 3.68 µM | 2.6 | 6.88 µM | 3.01 | 6.12 µM
N#Cc1nc(-c2cccc(Br)c2)cc(-c2ccc(Nc3nc(N4CCCCC4)nc(N4CCCCC4)n3)cc2)c1N | 1.36 | 3.73 µM | 2.82 | > 100 µM | 3.27 | 21.5 µM | 2.12 | 5.02 | 2.09 | 4.61 µM | 1.99 | 4.64 | 2.31 | 6.62 µM | 1.83 | 3.89 µM | 3.29 | > 100 µM | 2.1 | 5.29 µM
C[C@]12CC[C@H]3[C@@H](CC=C4C[C@@H](O)CC[C@@]43C)[C@@H]1C/C(=C\c1cccc(OCCN3CCOCC3)c1)[C@@H]2O | > 100 | > 100 µM | > 100 | > 100 µM | 70.9 | > 100 µM | > 100 | > 100 | 55.2 | > 100 µM | 7.39 | 58.3 | > 100 | > 100 µM | 22.4 | 56.4 µM | 50.7 | > 100 µM | > 100 | > 100 µM
CCC(C)C1NC(=O)C(NC(=O)C(CC(C)C)N(C)C(=O)[C@@H]2CC(O)CN2)C(C)OC(=O)[C@H](Cc2ccc(OC)cc2)N(C)C(=O)[C@@H]2CCCN2C(=O)[C@H](CC(C)C)NC(=O)C(C)C(=O)[C@H](C(C)C)OC(=O)CC1O (stereo partly specified) (H-[X9][ξNMeL][ξT][X4]LP[NMeY](Me); ester 3-C) | – | 0.119 µM and 0.166 µM | 0.0109 | 0.0759 µM and 0.682 µM | – | 0.172 µM and 0.252 µM | – | 0.266 | – | 0.0496 µM and 0.0758 µM | – | 0.0156 | – | 0.101 µM and 0.133 µM | – | 0.0194 µM and 0.106 µM | 0.0162 | 0.149 µM and 1.25 µM | – | 0.0555 µM and 0.0238 µM

From PubChem BioAssay (NCI)
